We go through 22 substances from patent US12037583B2, “Compositions and methods for immunooncology” (Novartis AG, priority 2015, dated 2024).

For the series, the system named is CIITA. Kind of series: NGS editing and frameshift edit of CIITA by dgRNA in HEK293 cells expressing Cas9. Format: cell-based, human. Particulars: HEK293 cells stably expressing Cas9, dgRNA to CIITA; for Avg. % Edit: N = 3; for Avg. % FS: frameshift edit.

Procedure: Editing of CIITA with dgRNAs targeted to the CIITA gene were assayed in HEK293 cells engineered to express Cas9, as described above in Example 1.

In the case of “CR002998 (guide GGGAGUCCUGGAAGACAUAC; targeting domain within dual guide RNA, chemistry not given here, further chemistry not given here; listed as Homo sapiens)”, the “Avg. % Edit” value amounted to 4.95% and the “Avg. % FS” value was 4.84%.

As to “CR003024 (guide GGUGACUGGCAGUCUCCUAG; targeting domain within dual guide RNA, chemistry not given here, further chemistry not given here; listed as Homo sapiens)”, the “Avg. % Edit” value turned out to be 20.40% and the “Avg. % FS” value is given as 16.33%.

As to “CR003019 (guide CUGCCAGUCACCACAGUGGG; targeting domain within dual guide RNA, chemistry not given here, further chemistry not given here; listed as Homo sapiens)”, the “Avg. % Edit” value worked out at 11.80% and the “Avg. % FS” value is recorded as 9.74%.

As for “CR003015 (guide AGGUCUGCCGGAAGCUCCUC; targeting domain within dual guide RNA, chemistry not given here, further chemistry not given here; listed as Homo sapiens)”, the “Avg. % Edit” value is 27.40% and the “Avg. % FS” value was 24.05%.

For the substance “CR003014 (guide GGUCUGCCGGAAGCUCCUCU; targeting domain within dual guide RNA, chemistry not given here, further chemistry not given here; listed as Homo sapiens)”, the “Avg. % Edit” value turned out to be 32.51% and the “Avg. % FS” value came out at 26.93%.

Consider “CR003017 (guide UUCCAGUGCUUCAGGUCUGC; targeting domain within dual guide RNA, chemistry not given here, further chemistry not given here; listed as Homo sapiens)”, for which the “Avg. % Edit” value was 21.90% and the “Avg. % FS” value was 15.22%.

Take “CR002989 (guide CACACAACAGCCUGCUGAAC; targeting domain within dual guide RNA, chemistry not given here, further chemistry not given here; listed as Homo sapiens)”: the “Avg. % Edit” value is on record as 27.38% and the “Avg. % FS” value is 8.45%.

As for “CR003012 (guide CUUUUCUGCCCAACUUCUGC; targeting domain within dual guide RNA, chemistry not given here, further chemistry not given here; listed as Homo sapiens)”, the “Avg. % Edit” value was 10.67% and the “Avg. % FS” value is on record as 7.51%.

Consider “CR002981 (guide CUUCUAUGACCAGAUGGACC; targeting domain within dual guide RNA, chemistry not given here, further chemistry not given here; listed as Homo sapiens)”, for which the “Avg. % Edit” value amounted to 36.28% and the “Avg. % FS” value is listed as 29.98%.

With “CR002996 (guide AGGUGCUUCCUCACCGAUAU; targeting domain within dual guide RNA, chemistry not given here, further chemistry not given here; listed as Homo sapiens)”, the “Avg. % Edit” value is recorded as 23.91% and the “Avg. % FS” value turned out to be 17.83%.

Take “CR003023 (guide GAGACUGCCAGUCACCACAG; targeting domain within dual guide RNA, chemistry not given here, further chemistry not given here; listed as Homo sapiens)”: the “Avg. % Edit” value stood at 29.38% and the “Avg. % FS” value is 16.83%.

On to “CR003006 (guide UACUGAAAAUGUCCUUGCUC; targeting domain within dual guide RNA, chemistry not given here, further chemistry not given here; listed as Homo sapiens)”, for which the “Avg. % Edit” value is reported as 19.46% and the “Avg. % FS” value is on record as 14.66%.

Take “CR002982 (guide UAUGACCAGAUGGACCUGGC; targeting domain within dual guide RNA, chemistry not given here, further chemistry not given here; listed as Homo sapiens)”: the “Avg. % Edit” value turned out to be 10.45% and the “Avg. % FS” value came to 9.05%.

In the case of “CR002973 (guide CAUCGCUGUUAAGAAGCUCC; targeting domain within dual guide RNA, chemistry not given here, further chemistry not given here; listed as Homo sapiens)”, the “Avg. % Edit” value was found to be 30.60% and the “Avg. % FS” value was 23.55%.

For “CR002986 (guide GCAGUUGAUGGUGUCUGUGU; targeting domain within dual guide RNA, chemistry not given here, further chemistry not given here; listed as Homo sapiens)”, the “Avg. % Edit” value came out at 1.77% and the “Avg. % FS” value turned out to be 1.48%.

Regarding “CR003004 (guide CCUUGCUCAGGCCCUCCAGC; targeting domain within dual guide RNA, chemistry not given here, further chemistry not given here; listed as Homo sapiens)”, the “Avg. % Edit” value is on record as 19.43% and the “Avg. % FS” value was 15.63%.

Turning to “CR002985 (guide CAGUUGAUGGUGUCUGUGUC; targeting domain within dual guide RNA, chemistry not given here, further chemistry not given here; listed as Homo sapiens)”, the “Avg. % Edit” value is reported as 32.99% and the “Avg. % FS” value was 29.52%.

Consider “CR003005 (guide CCAGCUGGAGGGCCUGAGCA; targeting domain within dual guide RNA, chemistry not given here, further chemistry not given here; listed as Homo sapiens)”, for which the “Avg. % Edit” value turned out to be 21.11% and the “Avg. % FS” value is recorded as 18.08%.

Take “CR003010 (guide AUGGAGAUGCCAGCAGAAGU; targeting domain within dual guide RNA, chemistry not given here, further chemistry not given here; listed as Homo sapiens)”: the “Avg. % Edit” value came to 25.45% and the “Avg. % FS” value is listed as 14.37%.

In the case of “CR003026 (guide AGUCGCUCACUGGUCCCACU; targeting domain within dual guide RNA, chemistry not given here, further chemistry not given here; listed as Homo sapiens)”, the “Avg. % Edit” value was found to be 29.63% and the “Avg. % FS” value stood at 20.05%.

Turning to “CR002979 (guide CUACCACUUCUAUGACCAGA; targeting domain within dual guide RNA, chemistry not given here, further chemistry not given here; listed as Homo sapiens)”, the “Avg. % Edit” value was 28.91% and the “Avg. % FS” value is given as 23.07%.

As to “CR002974 (guide AGAAGUGGUAGAGGCACAGG; targeting domain within dual guide RNA, chemistry not given here, further chemistry not given here; listed as Homo sapiens)”, the “Avg. % Edit” value came out at 8.99% and the “Avg. % FS” value is on record as 6.92%.
